Assay results as given in article PMC4767442 (Oncotarget, 2015).
Each block holds one compound with its values, some of them ahead of it.

Legend:
[1] = test system: HL-60 human promyelocytic leukemia cell line; assay: MTT proliferation/viability assay, HL-60; format: cell-based; conditions: 72 h/37°C, mean ± S.D.
Method: (§1) The MCF-7 human breast adenocarcinoma cell line was purchased from the European Collection of Cell Cultures (U.K.). The HL-60 human promyelocytic leukemia cell line, HCT116 human colorectal carcinoma cell line, H9c2 rat heart-derived myoblast cell line and 3T3 mouse embryo fibroblast line, were obtained from the American Type Culture Collection (VA, U.S.A.). Cells were cultured in Dulbecco's modified Eagle's medium (DMEM, Lonza, Switzerland) with or without (for MCF-7 cells only) phenol red, supplemented with 10% heat-inactivated fetal bovine serum (FBS; Lonza, Switzerland), 1% penicillin/streptomycin solution (Lonza, Switzerland) and 10 mM HEPES buffer (pH 7.0-7.6; Sigma-Aldrich, Germany). The HL-60 cell line was maintained in RPMI medium (Sigma-Aldrich, Germany) supplemented with 10% heat-inactivated FBS and 1% penicillin/streptomycin solution. All cell lines were cultured in 75 cm^2 tissue culture flasks (Switzerland) at 37°C in a humidified atmosphere of 5% CO2. Sub-confluent cells or, in the case of HL-60 cells, a cell suspension, were sub-cultured every 3-4 days.
(§2) Cells were seeded in 96-well plates for 24 h/37°C at a density of 5,000 (MCF-7), 10,000 (HL-60), 2,000 (HCT116) and 10,000 (3T3 and H9c2) cells/well. For 3T3 and H9c2 cells, the medium was changed to serum- and pyruvate-free DMEM 24 h prior to the experiments. Anti-proliferative and cytotoxicity effects of the compounds were studied at different concentrations after incubations for 72 h/37°C. Viabilities of cells were determined using MTT assays (Sigma-Aldrich, Germany) according to the manufacturer's instructions on a Tecan Infinite 200M plate reader (Tecan, Austria). The proliferation/viability of treated groups was expressed as a percentage of the untreated controls (100%).

[2] = test system: MCF-7 human breast adenocarcinoma cell line; assay: MTT proliferation/viability assay, MCF-7; format: cell-based; conditions: MCF7, 72 h/37°C, mean ± S.D.
Method: as §1, §2

[3] = test system: HCT116 human colorectal carcinoma cell line; assay: MTT proliferation/viability assay, HCT116; format: cell-based; conditions: HCT-116, 72 h/37°C, mean ± S.D.
Method: as §1, §2

[4] = test system: H9c2 rat heart-derived myoblast cell line; assay: MTT proliferation/viability assay, H9c2; format: cell-based; conditions: 72 h/37°C, mean ± S.D., serum- and pyruvate-free DMEM
Method: as §1, §2

[5] = test system: 3T3 mouse embryo fibroblast line; assay: MTT proliferation/viability assay, 3T3; format: cell-based; conditions: 72 h/37°C, mean ± S.D., serum- and pyruvate-free DMEM
Method: as §1, §2

[6] = test system: cancer cell lines (HL-60, MCF-7 and HCT116); assay: MTT assay, cancer cell lines as a group; format: cell-based; conditions: Homo sapiens, HL-60, MCF-7, HCT116, 72 h/37°C, read-out: IC50 against all cancer cell lines
Method: as §1, §2

[7] = test system: non-cancer cell lines (H9c2 and 3T3); assay: MTT assay, non-cancer cell lines as a group; format: cell-based; conditions: Rattus norvegicus, 72 h/37°C, read-out: IC50 towards non-cancer cells
Method: as §1, with “All cell lines were cultured in 75 cm^2 tissue culture flasks (Switzerland) at 37°C in a humidified atmosphere of 5% CO2. Sub-confluent cells or, in the case of HL-60 cells, a cell suspension, were sub-cultured every 3-4 days.” left out
Cells were seeded in 96-well plates for 24 h/37°C at a density of 5,000 (MCF-7), 10,000 (HL-60), 2,000 (HCT116) and 10,000 (3T3 and H9c2) cells/well. […] Viabilities of cells were determined using MTT assays (Sigma-Aldrich, Germany) according to the manufacturer's instructions on a Tecan Infinite 200M plate reader (Tecan, Austria). The proliferation/viability of treated groups was expressed as a percentage of the untreated controls (100%).

[8] = test system: cellular labile iron pools; assay: Fluorimetric calcein-AM assay of intracellular iron chelation; format: cell-based; conditions: 10 μmol·L^−1, parent Dp44mT or DpC
Method: (§3) Iron chelation efficiency of the compounds at a concentration of 10 μmol·L^−1 was determined via 3 methods: (1) the calcein assay; (2) the ability of the ligands to induce ^59Fe mobilization from cells prelabeled with ^59Fe-transferrin; and (3) the efficacy of these agents to inhibit the uptake of ^59Fe from ^59Fe-transferrin [22, 38–40].
(§4) The fluorimetric calcein-AM assay was performed by established methods, as described previously. The Fe chelation efficiency of the metabolites in cells was expressed as a percentage of that of the parent chelator, Dp44mT or DpC (100%). For studies assessing the ability of these agents to induce ^59Fe mobilization and inhibit ^59Fe uptake from ^59Fe-transferrin by cells, human transferrin (Sigma-Aldrich, Germany) was labeled with ^59Fe (PerkinElmer, MA, USA) to generate ^59Fe-transferrin at a final specific activity of 500 pCi/pmol Fe, as previously described. The unbound ^59Fe was removed by exhaustive vacuum dialysis against a large excess of 0.15 M NaCl buffered to pH 7.4 with 1.4% NaHCO3 by standard methods.

MCF-7 cells [9] = assay: 59Fe mobilization from cells prelabeled with 59Fe-transferrin; format: cell-based, human; conditions: MCF-7 prelabeled with 59Fe-transferrin, compounds 25 μmol·L^−1, 3 h/37°C
Method: as §3, §4
(§5) To examine the ability of the studied substances to mobilize ^59Fe from MCF-7 cells or inhibit ^59Fe uptake from ^59Fe-transferrin, established techniques were utilized. For ^59Fe mobilization studies, cells were preincubated with ^59Fe-transferrin (0.75 μmol·L^−1) for 3 h/37°C, washed 4 times at 4°C on ice, and then reincubated with control medium or control medium containing the compounds (25 μmol·L^−1) for 3 h/37°C. The release of ^59Fe from the cells into the overlying medium was then examined by collecting both the cells and overlying medium and assessing ^59Fe levels using a γ-counter. For studies examining the ability of the agents to inhibit ^59Fe uptake from ^59Fe-transferrin, cells were incubated for 3 h/37°C with ^59Fe-transferrin (0.75 μmol·L^−1) in the presence or absence of the agents (25 μmol·L^−1), and then washed 4 times at 4°C on ice. The internalization of ^59Fe by cells was then assessed by incubation for 30 min/4°C with the general protease, Pronase (1 mg/mL), utilizing standard techniques. The amount of internalized ^59Fe in the presence of the agents was expressed as a percentage of ^59Fe internalized by control cells incubated in the presence of control media alone.

MCF-7 cells [10] = assay: Inhibition of internalized 59Fe uptake from 59Fe-transferrin; format: cell-based, human; conditions: MCF-7, compounds 25 μmol·L^−1, 3 h/37°C
Method: as §3, §4, §5

[11] = Long-term stability in plasma samples at -80°C; format: in vitro ADME, rat; conditions: for Long-term stability: plasma, -80°C, 7 days
Method: (§6) The UHPLC-MS/MS methods for quantitative assays were validated with respect to selectivity, linearity, precision, accuracy, stability, recovery, matrix effects and dilution integrity (see […]
Linearity was examined over the concentration ranges described in Supplementary Table 1 using a weighted (1/x 2) linear regression in GraphPad Prism 6 (v. 6.04, GraphPad Software […]
(§7) Stability was assessed at low, medium and high concentration levels. Long -term stability was assessed for plasma samples at -80°C over a period of 7 days (three aliquots per level; Supplementary Table 3). […]

[12] = Post-preparative stability in the autosampler at 10°C; format: physicochemical; conditions: for Post-preparative stability: autosampler 10°C, 24 h
Method: as §6
Supplementary Table 1-3). […]
as §7

[13] = design: method as in PMID 12203104; conditions: humans, single i.v. bolus; cited from earlier work
[14] = Pharmacokinetics and metabolism of Bp4eT in rats (literature); format: in vivo
[15] = cited from earlier work
[16] = high concentration level (2.105-3.115 µmol·L-1)
[17] = low concentration level (0.035-0.156 µmol·L-1)
[18] = medium concentration level (0.702-1.558 µmol·L-1)

IC50 [1]: 32.3 ± 3.85 µM | IC50 [2]: 19.5 ± 6.27 µM | IC50 [3]: 34.1 ± 6.35 µM | IC50 [6]: ≥ 19 µM | Long-term stability [11, 16]: 104.23% | Long-term stability [11, 17]: 87.83% | Long-term stability [11, 18]: 105.54% | decomposition on storage (in words) ([11]; up to 7 days stored at −80°C): No significant decomposition | decomposition on storage (in words) ([12]; 24 h storage in the autosampler at 10°C): No significant decomposition | Post-preparative stability [12, 16]: 99.55% | Post-preparative stability [12, 17]: 101.11% | Post-preparative stability [12, 18]: 93.89%
SMILES: CN(C=NN=C(c1ccccn1)c1ccccn1)C1CCCCC1 [DpC-A, N-cyclohexyl-N′-(di(pyridin-2-yl)methylene)-N-methylformohydrazonamide]
IC50 [4]: 257 ± 73.6 µM | IC50 [5]: 640 ± 65.9 µM | IC50 [7]: ≥ 257 µM | intracellular Fe chelation efficacy relative to parent chelator (100%) [8]: 2.5% | 59Fe mobilization (in words) (MCF-7 cells [9]): comparable (p > 0.05) to the control medium | inhibition of 59Fe uptake from 59Fe-transferrin (in words) (MCF-7 cells [10]): loss of Fe chelation efficacy

SMILES: NC(=S)NN=Cc1ncccc1N [Triapine®, 3-aminopyridine-2-carboxaldehyde thiosemicarbazone]
half-life of elimination [13]: approximately 1 h

dose-corrected Cmax, fold higher than Dp44mT and DpC of the present study [14]: ~2 fold
SMILES: CCNC(=S)NN=C(c1ccccc1)c1ccccn1 [Bp4eT, 2-benzoylpyridine 4-ethyl-3-thiosemicarbazone]
AUC of the amidrazone metabolite relative to the parent drug ([15]; rat, in vivo): ≈ 20% | elimination half-life ([15]; rats): 1.4 h
